Experimental data: patent publication US5449676A, “Pyridazines” (priority 1991, dated 1995)
Like-named read-outs stand apart in the source and are kept apart here.

Tests used:
[1] = molecular target: T1, PDE III (Homo sapiens, UniProt Q14432); assay: inhibition of PDE III isolated from human platelets; type: biochemical; conditions: negative logarithm of IC50; cAMP 0.5 μmol/l; read-out: PDE III hum. platelets -lg[IC50 ] (converted)
T1 construct: PDE III isolated from human platelets; from tissue; host or cells: human platelets
T1 sequence (Q14432 whole entry): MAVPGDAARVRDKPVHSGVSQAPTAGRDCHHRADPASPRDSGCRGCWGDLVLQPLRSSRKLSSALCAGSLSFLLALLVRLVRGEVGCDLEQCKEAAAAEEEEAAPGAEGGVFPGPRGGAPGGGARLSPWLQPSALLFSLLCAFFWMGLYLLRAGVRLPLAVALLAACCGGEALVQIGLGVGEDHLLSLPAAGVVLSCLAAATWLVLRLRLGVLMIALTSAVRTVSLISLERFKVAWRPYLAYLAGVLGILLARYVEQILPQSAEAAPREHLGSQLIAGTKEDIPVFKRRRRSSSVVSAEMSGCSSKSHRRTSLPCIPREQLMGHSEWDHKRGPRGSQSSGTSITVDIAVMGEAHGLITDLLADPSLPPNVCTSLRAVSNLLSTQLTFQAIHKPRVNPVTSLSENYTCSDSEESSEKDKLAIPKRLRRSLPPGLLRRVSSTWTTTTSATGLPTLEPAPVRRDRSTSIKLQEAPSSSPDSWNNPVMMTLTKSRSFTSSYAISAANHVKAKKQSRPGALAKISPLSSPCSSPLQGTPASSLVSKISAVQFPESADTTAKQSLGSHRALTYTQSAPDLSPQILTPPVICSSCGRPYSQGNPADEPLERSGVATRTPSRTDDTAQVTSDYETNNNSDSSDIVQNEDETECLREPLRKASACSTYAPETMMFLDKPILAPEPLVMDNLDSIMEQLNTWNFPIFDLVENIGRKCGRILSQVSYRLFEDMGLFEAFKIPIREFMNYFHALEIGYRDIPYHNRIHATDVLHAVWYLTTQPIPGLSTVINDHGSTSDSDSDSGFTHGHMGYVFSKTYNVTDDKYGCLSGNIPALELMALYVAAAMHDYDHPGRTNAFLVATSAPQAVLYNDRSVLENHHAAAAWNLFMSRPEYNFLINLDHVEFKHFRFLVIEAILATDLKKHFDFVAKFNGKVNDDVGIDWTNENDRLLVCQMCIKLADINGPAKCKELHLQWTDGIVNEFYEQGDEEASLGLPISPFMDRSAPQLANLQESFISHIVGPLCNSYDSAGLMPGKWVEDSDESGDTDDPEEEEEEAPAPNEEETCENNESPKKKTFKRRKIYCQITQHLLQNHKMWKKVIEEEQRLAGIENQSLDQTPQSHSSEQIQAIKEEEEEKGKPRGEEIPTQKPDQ
From the text: (§1) The specific inhibition of phosphodiesterase IV (PDE IV=high-affinity cAMP-PDE which cannot be inhibited by cGMP, rolipram-sensitive) is regarded as particularly indicative of an expected bronchospasmolytic and/or antiinflammatory effect. The specificity of the inhibition is moreover described by the ratio [IC50 ]PDE-III /[IC50 ]PDE-IV (PDE III=high-affinity cAMP-PDE which can be inhibited by cGMP) [H. Hidaka et al., Adv. Cycl. Nucl. Res. 13, 145 (1984); TiPS 5, 237 (1984); R. Weishaar et al., J. Med. Chem. 28, (1985); S. A. Harrison et al., Molec. Pharmac. 29, 506 (1986); J. Klein-Tebbe et al., Allergologie 12, 12 (1989); C. Schudt et al., Allergologie 12, 12, (1989); C. Schudt et al., Agents and Action 1991 in press; C. D. Nicholson et al., TiPS 12, (1), 19 (1991)].
(§2) For this reason, the PDE inhibition by the compounds according to the invention was determined on a PDE III isolated from human platelets and on PDE IV isolated from human polymorphonuclear neutrophilic cells (PMNs) and from the dog trachea. Phosphodiesterases III and IV are isolated by chromatography as described by Polson et al., Biochem. Pharmacol. 31, 3403-3406 (1982).
(§3) The substances are dissolved and diluted further in DMSO. 2.1 μl samples from a series of solutions diluted up to 100 fold are mixed with 212 μl of reaction mixture. The reaction mixture contains Hepes (100 mmol/l), DTE (5 mmol/l), MgCl2 (5 mmol/l), CaCl2 (10 μmol/l), BSA fraction V 0.5 mg, ml, cAMP 0.5 μmol/l, 2,8-^3 H-cAMP 250,000 cpm/ml (0.3 μCi/ml, S.A. […]), SV (snake venom) 25 μg/212 μl of test mixture.

[2] = system: PDE IV; assay: inhibition of PDE IV isolated from dog trachea; type: biochemical; conditions: for PDE IV dog trachea -lg[IC50 ]: negative logarithm of IC50, cAMP 0.5 μmol/l; for [IC50 ] PDE III/[IC50 ] PDE IV dog tr.: selectivity ratio, PDE III hum. platelets vs PDE IV dog trachea
From the text: as §1, §2, §3

[3] = system: PDE IV; assay: inhibition of PDE IV isolated from human polymorphonuclear neutrophilic cells (PMNs); type: biochemical; conditions: for PDE IV hum. PMNs -lg[IC50 ]: negative logarithm of IC50, cAMP 0.5 μmol/l; for [IC50 ] PDE III/[IC50 ] PDE IV PMNs: selectivity ratio, PDE III hum. platelets vs PDE IV hum. PMNs
From the text: as §1, §2, §3

[4] = system: tracheal rings; assay: bronchospasmolytic effect on the chain of tracheal rings from guinea pigs in vitro; type: cell-based; conditions: for EC50: Cavia porcellus, read-out: -lg[EC50 ] (converted); for EC50 / -lg[EC50 ]: negative logarithm of EC50 mol/l, 50% of maximum achievable relaxation; for [EC50 ] theophylline/[EC50 ] substance: ratio of EC50 values, theophylline vs substance
Protocol: The bronchospasmolytic effect of the compounds on the chain of tracheal rings from guinea pigs was tested in vitro as follows:
Thus, a complete dose-effect plot for the test substance is obtained over a period of 20 to 30 minutes. The particular relaxation is expressed as a percentage fraction of the maximum relaxation achievable by administration of (-)isoprenaline (10^-6 mol/l).

[5] = system: histamine-induced bronchospasm; assay: histamine-induced bronchospasm in anesthetized guinea pigs; type: in vivo; conditions: for inhibition in vivo at 20 µmol/kg / inhibition in vivo at 60 µmol/kg / inhibition in vivo at 100 µmol/kg / inhibition in vivo at 5 µmol/kg / inhibition in vivo at 10 µmol/kg: Cavia porcellus; for inhibition in vivo at 5 µmol/kg: 5 μmol/kg; for inhibition in vivo at 10 µmol/kg: 10 μmol/kg
Protocol: One histamine spasm before administration of the substance was compared with several histamine spasms after administration of the substance. The test substances were administered intravenously (i.v.) and/or intrajejunally (i.j.).

[6] = system: acetylcholine-induced bronchospasm; assay: protective effect against acetylcholine-induced bronchospasm in conscious guinea pigs; type: in vivo; conditions: oral, 30 minutes after administration, percentage of protected animals; for responders at 10 µmol/kg: 10 μmol/kg
Protocol: In addition, the bronchospasmolytic effect was tested on the "protective effect against acetylcholine-induced bronchospasm in conscious guinea pigs" model:
Guinea pigs (250-350 g) are exposed in a closed Plexiglass cylinder (volume […] ) to an acetylcholine mist (0.06% in 0.9% sodium chloride solution; Heyer Use 77 ultrasonic atomizer) before administration of the substance and twice at an interval of 20 minutes after administration of the substance. The time from the start of atomization to the onset of marked breathing difficulties (in some cases hypoxic convulsion in the lateral position) is measured and called the latency time. An increase in the latency time after administration of the substance to at least three times the average latency time before administration of the substance is regarded as a protective effect, and the number of protected animals in the group is determined. […]
[…] After 30 minutes, the animals are again exposed to the acetylcholine mist and the latency times are measured. An increase in the latency time to at least three times the length is regarded as a protective effect.

[7] = 1 h, read-out: % inhibition (0-1 h) of the histamine-induced decrease in Vmax
[8] = 1 h, read-out: % inhibition after 1 h of the histamine-induced decrease in Vmax
[9] = iv, 1 h, read-out: % inhibition (0-1 h) of the histamine-induced decrease in Vmax
[10] = iv, 1 h, read-out: % inhibition after 1 h of the histamine-induced decrease in Vmax
[11] = Cavia porcellus, 0.5 h, 100 μmol/kg
[12] = iv, 20 μmol/kg, after 1 h, read-out: % inhibition after 1 h of the histamine-induced decrease in Vmax
[13] = iv, 20 μmol/kg, average 0-1 h after administration, read-out: % inhibition (0-1 h) of the histamine-induced decrease in Vmax
[14] = iv, after 1 h, read-out: % inhibition after 1 h of the histamine-induced decrease in Vmax
[15] = iv, average 0-1 h after administration, read-out: % inhibition (0-1 h) of the histamine-induced decrease in Vmax

Row | Compound | IC50 [1] [µM] | PDE IV hum. PMNs -lg[IC50 ] [3] | [IC50 ] PDE III/[IC50 ] PDE IV PMNs [3] | EC50 [4] [µM] | [EC50 ] theophylline/[EC50 ] substance [4] | responders at 100 µmol/kg [6, 11] [%] | also measured
1 | COc1ccc(-c2ccc(N)nn2)cc1OC1CCCCCC1 [Serial No. 8, 3-amino-6-(3-cycloheptyloxy-4-methoxyphenyl)pyridazine] | 77.6 |  |  |  |  |  | PDE IV dog trachea -lg[IC50 ] [2]: 5.37; [IC50 ] PDE III/[IC50 ] PDE IV dog tr. [2]: 18.2
2 | CC(C)COc1cc(-c2ccc(N)nn2)ccc1OC(F)F [compound 17] | 151 | 6,96 | 1466 |  |  |  | 
3 | CCOc1ccc(-c2ccc(N)[n+]([O-])n2)cc1OC(F)F [compound 21] | 44.7 | 5.19 | 6.9 | 0.562 | 240 |  | 
4 | Cn1c(=O)c2[nH]cnc2n(C)c1=O [Theophylline, reference compound] |  | 3.77 |  |  |  | 20 | inhibition in vivo at 20 µmol/kg [5, 7]: 11%; inhibition in vivo at 60 µmol/kg [5, 7]: 37%; inhibition in vivo at 100 µmol/kg [5, 7]: 45%; inhibition in vivo at 20 µmol/kg [5, 8]: 8%; inhibition in vivo at 60 µmol/kg [5, 8]: 42%; inhibition in vivo at 100 µmol/kg [5, 8]: 44%; inhibition in vivo at 20 µmol/kg [5, 9]: 13%; inhibition in vivo at 60 µmol/kg [5, 9]: 25%; inhibition in vivo at 100 µmol/kg [5, 9]: 34%; inhibition in vivo at 20 µmol/kg [5, 10]: 5%; inhibition in vivo at 60 µmol/kg [5, 10]: 12%; inhibition in vivo at 100 µmol/kg [5, 10]: 22%; responders at 200 µmol/kg ([6]; Cavia porcellus, 0.5 h, 200 μmol/kg): 40%; responders at 400 µmol/kg ([6]; Cavia porcellus, 0.5 h, 400 μmol/kg): 70%
5 | 3-amino-6-(4-difluoromethoxy-3-methoxyphenyl)pyridazine [Serial No. 11] |  |  |  |  | 20.4 |  | -lg[EC50 ] [4]: 5.18; % inhibition after 1 h of the histamine-induced decrease in Vmax ([5]; i.v., 20 μmol/kg, after 1 h): is; % inhibition (0-1 h) of the histamine-induced decrease in Vmax ([5]; i.v., 20 μmol/kg, average 0-1 h after administration): 22%; % protective effect ([6]; 30 μmol/kg): 35%; % protective effect ([6]; 100 μmol/kg, listed as 4): 35%; % protective effect ([6]; 100 μmol/kg, listed as 6): 85%
6 | Nc1ccc(-c2ccc(OC(F)F)c(OC3CCCC3)c2)nn1 [compound 14] | 53.7 | 7.15 | 1466 | 6.61 | 20.4 |  | 
7 | Nc1ccc(-c2ccc(OC(F)F)c(OC3CCCC3)c2)n[n+]1[O-] [compound 24] | 47.9 | 7.24 | 832 | 2.04 | 65.5 | 60 | 
8 | Nc1ccc(-c2ccc(OC(F)F)c(OCC3CC3)c2)n[n+]1[O-] [compound 26] | 18.2 | 7.48 | 550 | 1 | 135 |  | inhibition in vivo at 20 µmol/kg [5, 12]: 12%; inhibition in vivo at 20 µmol/kg [5, 13]: 15%; responders at 10 µmol/kg ([6]; Cavia porcellus, 0.5 h): 70%
9 | Nc1ccc(-c2ccc(OC(F)F)c(OCC3CC3)c2)nn1 [compound 18] | 145 | 7.47 | 4265 |  |  | 75 | inhibition in vivo at 5 µmol/kg [5, 14]: 49%; inhibition in vivo at 5 µmol/kg [5, 15]: 40%; inhibition in vivo at 10 µmol/kg [5, 14]: 38%; inhibition in vivo at 10 µmol/kg [5, 15]: 33%; inhibition in vivo at 20 µmol/kg [5, 12]: 35%; inhibition in vivo at 20 µmol/kg [5, 13]: 31%; inhibition in vivo at 10 µmol/kg ([5]; i.j. admin., after 1 h, read-out: % inhibition after 1 h of the histamine-induced decrease in Vmax): 43%; inhibition in vivo at 10 µmol/kg ([5]; i.j. admin., average 0-1 h after administration, read-out: % inhibition (0-1 h) of the histamine-induced decrease in Vmax): 32%; responders at 10 µmol/kg ([6]; Cavia porcellus, 0.5 h): 75%
10 | CC(C)Oc1cc(-c2ccc(N)nn2)ccc1OC(F)F [compound 15] | 107 | 6.78 | 794 |  |  |  | 
11 | COc1cc(-c2ccc(N)nn2)ccc1OC(C)C [Serial No. 5, 3-amino-6-[3-methoxy-4-(1-methylethoxy)phenyl]pyridazine] |  |  |  |  |  | 45 | 
12 | CC(C)COc1cc(-c2ccc(N)[n+]([O-])n2)ccc1OC(F)F [compound 23] | 126 | 7.03 | 1350 | 3.02 | 44.7 |  | 
13 | Nc1ccc(-c2ccc(OC(F)F)c(OCC(F)(F)F)c2)nn1 [compound 16] | 331 | 6.88 | 2515 |  |  |  | 
14 | 3-amino-6-(4-difluoromethoxy-3-ethoxyphenyl)pyridazine 2-oxide [Serial No. 19] |  |  |  |  | 14.5 |  | -lg[EC50 ] [4]: 5.03; % protective effect ([6]; 100 μmol/kg): 35%
15 | COc1ccc(-c2ccc(N)nn2)cc1OC1CCCCC1 [Serial No. 7, 3-amino-6-(3-cyclohexyloxy-4-methoxyphenyl)pyridazine] | 60.3 |  |  |  |  |  | PDE IV dog trachea -lg[IC50 ] [2]: 5.17; [IC50 ] PDE III/[IC50 ] PDE IV dog tr. [2]: 8.9
16 | 3-amino-6-(4-difluoromethoxy-3-methoxyphenyl)pyridazine 2-oxide [Serial No. 20] |  |  |  |  | 33.2 |  | -lg[EC50 ] [4]: 5.39; % protective effect ([6]; 100 μmol/kg): 50%
17 | Nc1ccc(-c2ccc(OC(F)F)c(OCC(F)(F)F)c2)n[n+]1[O-] [compound 25] | 70.8 | 6.42 | 186 | 0.355 | 380 | 70 | inhibition in vivo at 20 µmol/kg [5, 12]: 33%; inhibition in vivo at 20 µmol/kg [5, 13]: 34%; responders at 10 µmol/kg ([6]; Cavia porcellus, 0.5 h): 45%
18 | CC(C)Oc1cc(-c2ccc(N)[n+]([O-])n2)ccc1OC(F)F [compound 22] | 12 | 6.26 | 21.9 | 3.02 | 44.7 | 60 | 
